# Data: patent publication EP0701444B1, “METHODS AND COMPOSITIONS FOR INDUCING SLEEP” (Purdue Pharma Ltd., priority 1993, dated 1994)
# Entries after “also recorded” stand apart in the source; their conditions may differ. Like-named read-outs stand apart in the source and are kept apart here.
# Key:
# [1] = tested on: rats; test: Rat sleep-wake bioassay (EEG, EMG, locomotor activity, body temperature); assay type: in vivo, Wistar rats; details: for LMA versus vehicle control: administered at CT-5, first hour after treatment; for reduction in locomotor activity (LMA) over time: compared to Triazolam and Zolpidem
# Procedure: Rat preparation, monitoring, and analysis of the data was conducted as described below. […] Body temperature and locomotor activity were monitored via a miniature transmitter (Minimitter) surgically placed in the abdomen. The cranial implant consisted of stainless steel screws (2 frontal [+3.9 AP form bregma, ±2.0 ML] and two occipital [-6.4 AP, ±5.5 ML]) for EEG recording. Two Teflon-coated steel wires were positioned under the nuchal trapezoid muscles for EMG recording. All leads were soldered to a miniature connector prior to surgery, and chemically sterilized in Glutarex (3M Co.). The implant assembly was affixed to the skull with dental acrylic. A minimum of three weeks was allowed for recovery.
# Each rat was permanently housed in its own individual recording cage located within separate, ventilated compartments of custom-designed stainless steel cabinets. Each Nalgene microisolator cage, which is an individual recording cage, was enhanced with a filter-top riser and swivel-commutator. Food and water were available ad libitum. […] Animals were undisturbed for three days both before and after treatments. In practice, animals were undisturbed during the weekend. Treatments were administered on Monday evening or Tuesday morning, and the animals were again left undisturbed until Friday, when cages were cleaned and the data copied off the computers.
# The computers monitored the EEG, EMG, body temperature and non-specific locomotor activity (LMA) via telemetry, and drinking activity from 48 rats simultaneously. The computer classified the arousal state every 10 seconds using pattern-matching algorithms which included behavior-dependent contextual rules. Drinking and LMA were recorded every 10 seconds, while body temperature was recorded every minute.
# Therefore, time of treatment is important. By administering the drug at CT-18, which is the peak of the rat's activity dominated period, the natural tendency for the rats to sleep at lights on ([…] clock time or Circadian Time, CT-0) cannot mask the hypnotic activity of the drug. By administering the drug at CT-5 when the propensity for REM sleep is greatest, the drug's effect on REM sleep can be measured more accurately. The activity dominated period begins when the lights are turned off at CT-12 or 15:00 clock time on the Figures.
# The drugs and controls were injected intraperitoneally or administered orally in a volume of 1 ml/kg or […], respectively, under dim red illumination for the CT-18 studies or under regular light for the CT-5 studies.
# A matched control group, N=20, was selected from a pool of 60 available control candidates. These matched control groups were constructed as follows.
# [2] = target: steroid site on the GABAA receptor-chloride channel complex; test: [35S]TBPS binding assay; set-up: species or system Male Sprague-Dawley rats; details: inhibition of [35S]TBPS (2 nM) binding, rat cerebral cortex P2 membranes, 5 µM GABA, 90 minute incubation at 22°C
# Procedure: TBPS binding assays were conducted according to the following procedures, which are described in Gee, K.W.; Lawrence, L.J.; and Yamamura, H. I., "Modulation of the Chloride Ionophore by Benzodiazepine Receptor Ligands Influence of Gamma-Aminobutyric Acid and Ligand Efficacy," Molecular Pharmacology, 30:218, 1986. Male Sprague-Dawley rats (200-250g) were anesthetized with carbon dioxide and decapitated. The rats' brains were removed and the cerebral cortices were dissected and homogenized in 10 volumes of 0.32 M sucrose. Tissue was centrifuged at 1000 x g for 10 minutes and the resultant supernatant was centrifuged at 9,000 g for 20 minutes. The resultant pellet was resuspended in 10 volumes of 200 mM NaCl/50 mM Na-K phosphate pH 7.4 buffer (binding buffer) and then centrifuged at 9,000 x g for 10 minutes. This washing procedure was repeated twice and the final P2 pellet was resuspended in the binding buffer. For the binding assay, [^35S] TBPS (2 nM) was co-incubated in binding buffer with P2 membranes and 5 µM GABA and either 1) no additions to measure total binding; 2) 2 µM unlabeled TPBS to measure nonspecific binding; 3) the neurosteroid ranging in concentration from 1 Nm to 10µM. Following a 90 minute incubation at 22°C, the suspension was filtered and the bound radioactivity was determined by liquid scintillation counting. […] A lower IC50 indicates higher affinity for the steroid site on the GABAA receptor-chloride channel complex. Table 1 gives the IC50 values of representative steroids used in the present invention.
# [3] = administered at CT-18, first few hours after administration
compound,measurement,setting,value
"Cc1ccc(-c2nc3ccc(C)cn3c2CC(=O)N(C)C)cc1 [Zolpidem, reference compound]",LMA after the hypnotic action has worn off,[1],continues to depress LMA; also recorded: reduced body temperature and locomotor activity
same,REM sleep,[1],strongly interfered with REM sleep
same,body temperature,[1],affect body temperature; also recorded: reduced body temperature
same,rebound insomnia / rebound wakefulness / rebound effects,[1],did not produce rebound insomnia
same,NREM sleep / hypnotic effect,[1]; administered at CT-5,unable to effectively induce NREM sleep
same,REM sleep,[1]; administered at CT-5,interferes with REM sleep
same,LMA versus vehicle control,[1],reduced LMA below vehicle control levels
same,REM sleep,[1]; [3],reduced REM sleep
CC(=O)[C@H]1CC[C@H]2[C@@H]3CC[C@@H]4C[C@H](O)CC[C@]4(C)[C@H]3CC[C@]12C [3α-hydroxy-5β-pregnan-20-one],IC50,[2],0.025 µM
same,body temperature,[1],tends not to affect body temperature
same,duration of uninterrupted NREM sleep (sleep bout length),[1],strong increase
same,rebound insomnia / rebound wakefulness / rebound effects,[1],not producing rebound wakefulness
same,reduction in locomotor activity (LMA) over time,[1]; 10 mg/kg,no reduction
same,reduction in locomotor activity (LMA) over time,[1]; 30 mg/kg,moderately smaller reduction
same,rebound reduction of NREM sleep,"[1]; CT-5 or CT-18, any dose",no rebound reduction of NREM sleep
same,NREM sleep,"[1]; administered at CT-5 or CT-18, listed as Pregnanolone",potent at both CT-5 and CT-18; also recorded: potent NREM-promoting effect
same,NREM sleep,"[1]; administered at CT-5 or CT-18, listed as pregnanolone",effective in promoting NREM sleep
same,REM sleep,[1]; listed as Pregnanolone,slight REM-interference
same,REM sleep,[1]; listed as pregnanolone,lack an inhibitory effect on REM sleep
"C#C[C@@]1(O)CC[C@@]2(C)[C@@H](CC[C@@H]3[C@@H]2CC[C@]2(C)[C@@H](C(C)=O)CC[C@@H]32)C1 [3β-ethynyl-3α-hydroxy-5α-pregnan-20-one, 3β-Ethynyl-3α-hydroxy-5α-pregnan-20-one]",REM sleep,[1],slight REM-interference
same,NREM sleep,[1]; administered at CT-5 or CT-18,potent NREM-promoting effect
"Cc1nnc2n1-c1ccc(Cl)cc1C(c1ccccc1Cl)=NC2 [Triazolam, reference compound]",LMA after the hypnotic action has worn off,[1],reduced body temperature and locomotor activity
same,body temperature,[1],affect body temperature; also recorded: reduced body temperature
same,NREM sleep / hypnotic effect,[1]; administered at CT-5,no hypnotic effect
same,LMA versus vehicle control,[1],reduced LMA below vehicle control levels
same,REM sleep,[1]; [3],reduced REM sleep
"Cc1cccc([C@H](C)c2cnc[nH]2)c1C [Dexmedetomidine, reference compound]",REM sleep,[1],strongly interfered with REM sleep
same,rebound insomnia / rebound wakefulness / rebound effects,[1],strong rebound effects
"CCC[C@H](O)[C@H]1CC[C@H]2[C@@H]3CC[C@H]4C[C@H](O)CC[C@]4(C)[C@H]3CC[C@]12C [3α,20a-Dihydroxy-21-ethyl-5α-pregnane]",IC50,[2],0.027 µM
CC[C@@]1(O)CC[C@@]2(C)[C@@H](CC[C@@H]3[C@@H]2CC[C@]2(C)[C@@H](C(C)=O)CC[C@@H]32)C1 [3α-hydroxy-3β-ethyl-5α-pregnan-20-one],IC50,[2],0.265 µM
"CC(C)(O)[C@H]1CC[C@H]2[C@@H]3CC[C@H]4C[C@](C)(O)CC[C@]4(C)[C@H]3CC[C@]12C [3α, 20-dihydroxy-3β, 20-dimethyl-5α-pregnane]",IC50,[2],0.264 µM
C=CCC[C@@]1(O)CC[C@@]2(C)[C@@H](CC[C@@H]3[C@@H]2CC[C@]2(C)[C@@H](C(C)=O)CC[C@@H]32)C1 [3β-(But-3-enyl)-3α-hydroxy-5α-pregnan-20-one],IC50,[2],0.242 µM
C=CC[C@@]1(O)CC[C@@]2(C)[C@H](CC[C@@H]3[C@@H]2CC[C@]2(C)[C@@H](C(C)=O)CC[C@@H]32)C1 [3α-Hydroxy-3β-(2'-propenyl)-5β-pregnan-20-one],IC50,[2],0.075 µM
CCOC[C@@]1(O)CC[C@@]2(C)[C@@H](CC[C@@H]3[C@@H]2CC[C@]2(C)[C@@H](C(C)=O)CC[C@@H]32)C1 [3β-(Ethoxymethyl)-3α-hydroxy-5α-pregnan-20-one],IC50,[2],0.154 µM
"CCC(=O)[C@H]1CC[C@H]2[C@@H]3CC[C@H]4C[C@](C)(O)CC[C@]4(C)[C@H]3CC[C@]12C [3α-hydroxy-3β,21-dimethyl-5α-pregnan-20-one]",IC50,[2],0.089 µM
CC/C=C1/CC[C@H]2[C@@H]3CC[C@@H]4C[C@H](O)CC[C@]4(C)[C@H]3CC[C@]12C [3α-hydroxy-21-methyl-5β-pregnan-17(20)(Z)-ene],IC50,[2],0.217 µM
"C[C@@]1(O)CC[C@@]2(C)[C@@H](CC[C@@H]3[C@@H]2CC[C@]2(C)[C@@H](C(=O)COS(C)(=O)=O)CC[C@@H]32)C1 [3α, 21-dihydroxy-3β-methyl-5α-pregnan-20-one 21-mesylate]",IC50,[2],0.255 µM
CO/C=C1/CC[C@H]2[C@@H]3CC[C@H]4C[C@H](O)CC[C@@H]4[C@H]3CC[C@]12C [3α-hydroxy-17(Z)-methoxymethylene-19-nor-5α-androstane],IC50,[2],0.35 µM
3α-Hydroxy-3β-trifluoromethyl-5β-19-nor-pregn-17(20)-ene,IC50,[2],0.482 µM
"C#C[C@@]1(O)CC[C@@]2(C)[C@@H](CC[C@@H]3[C@@H]2CC[C@]2(C)[C@@H](C(=O)CO)CC[C@@H]32)C1 [3α,21-Dihydroxy-3β-ethynyl-5α-pregnan-20-one]",IC50,[2],0.216 µM
"C[C@]12CC[C@@H](O)C[C@H]1CC[C@@H]1[C@@H]2CC[C@]2(C)[C@@H](C(=O)COC(=O)CCC(=O)O)CC[C@@H]12 [3α,21-dihydroxy-5β-pregnan-20-one 21-hemisuccinate]",IC50,[2],0.224 µM
CC(=O)[C@H]1CC[C@H]2[C@@H]3CC[C@@H]4C[C@](C)(O)CC[C@@H]4[C@H]3CC[C@]12C [3α-Hydroxy-3β-methyl-5β-19-nor-pregnan-20-one],IC50,[2],0.026 µM
CC(=O)[C@H]1CC[C@H]2[C@@H]3CC[C@H]4C[C@@](O)(C#CC(C)O)CC[C@]4(C)[C@H]3CC[C@]12C (stereo partly drawn) [3α-Hydroxy-3β-[3'(RS)-hydroxybutynyl]-5α-pregnan-20-one],IC50,[2],0.14 µM
"C[C@]12CC[C@@H](O)C[C@@H]1CC[C@@H]1[C@@H]2CC[C@]2(C)[C@@H](C(=O)COC(=O)CCC(=O)O)CC[C@@H]12 [3α,21-dihydroxy-5α-pregnan-20-one 21-hemisuccinate]",IC50,[2],0.117 µM
"C#C[C@@]1(O)CC[C@@]2(C)[C@H](CC[C@@H]3[C@@H]2CC[C@]2(C)[C@@H](C(=O)COC(C)=O)CC[C@@H]32)C1 [3α, 21-Dihydroxy-3β-ethynyl-5β-pregnan-20-one, 21-acetate]",IC50,[2],0.251 µM
CCOC(=O)c1ccc(C#C[C@@]2(O)CC[C@@]3(C)[C@H](CC[C@@H]4[C@@H]3CC[C@]3(C)[C@@H](C(C)=O)CC[C@@H]43)C2)cc1 [3β-(4'-Carboxyphenyl)ethynyl-3α-hydroxy-5β-pregnan-20-one ethyl ester],IC50,[2],0.008 µM
CCC(=O)[C@H]1CC[C@H]2[C@@H]3CC[C@@H]4C[C@H](O)CC[C@]4(C)[C@H]3CC[C@]12C [3α-hydroxy-21-methyl-5β-pregnan-20-one],IC50,[2],0.078 µM
CC(=O)[C@H]1CC[C@H]2[C@@H]3CC[C@H]4C[C@](C)(O)CC[C@@H]4[C@H]3CC[C@]12C [3α-hydroxy-3β-methyl-5α-19-nor-pregnan-20-) one],IC50,[2],0.091 µM
COC[C@@]1(O)CC[C@@]2(C)[C@@H](CC[C@@H]3[C@@H]2CC[C@]2(C)[C@@H](C(C)=O)CC[C@@H]32)C1 [3α-hydroxy-3β-methoxymethyl-5α-pregnan-20-one],IC50,[2],0.067 µM
